The experiment has as its target wild-type human cardiac sodium channel, hNav1.5 (Homo sapiens, UniProt Q14524). Briefly: Late INa screening assay (QPatch whole cell patch clamp, HEK293). It is filed as cell-based. The conditions noted are these: HEK293, percent block of late INa; compound at 1 μM; 10 μM Tefluthrin; read-out: Late INa 1 μM. The gist of the method:
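HEK293 stably expressing hNav1.5 without beta subunits, recorded at 23-25° C. Late current was induced by 10 μM tefluthrin. Cells were depolarized from −120 mV to −20 mV for 250 ms at 0.1 Hz. Compounds were tested at 1 μM in extracellular solution, with baseline taken in 0Na-ECF; output is percent block of late INa.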
(The patch-clamp technique gives a direct electrical read-out from membranes.)
Sequence of wild-type human cardiac sodium channel, hNav1.5 (Q14524 whole entry): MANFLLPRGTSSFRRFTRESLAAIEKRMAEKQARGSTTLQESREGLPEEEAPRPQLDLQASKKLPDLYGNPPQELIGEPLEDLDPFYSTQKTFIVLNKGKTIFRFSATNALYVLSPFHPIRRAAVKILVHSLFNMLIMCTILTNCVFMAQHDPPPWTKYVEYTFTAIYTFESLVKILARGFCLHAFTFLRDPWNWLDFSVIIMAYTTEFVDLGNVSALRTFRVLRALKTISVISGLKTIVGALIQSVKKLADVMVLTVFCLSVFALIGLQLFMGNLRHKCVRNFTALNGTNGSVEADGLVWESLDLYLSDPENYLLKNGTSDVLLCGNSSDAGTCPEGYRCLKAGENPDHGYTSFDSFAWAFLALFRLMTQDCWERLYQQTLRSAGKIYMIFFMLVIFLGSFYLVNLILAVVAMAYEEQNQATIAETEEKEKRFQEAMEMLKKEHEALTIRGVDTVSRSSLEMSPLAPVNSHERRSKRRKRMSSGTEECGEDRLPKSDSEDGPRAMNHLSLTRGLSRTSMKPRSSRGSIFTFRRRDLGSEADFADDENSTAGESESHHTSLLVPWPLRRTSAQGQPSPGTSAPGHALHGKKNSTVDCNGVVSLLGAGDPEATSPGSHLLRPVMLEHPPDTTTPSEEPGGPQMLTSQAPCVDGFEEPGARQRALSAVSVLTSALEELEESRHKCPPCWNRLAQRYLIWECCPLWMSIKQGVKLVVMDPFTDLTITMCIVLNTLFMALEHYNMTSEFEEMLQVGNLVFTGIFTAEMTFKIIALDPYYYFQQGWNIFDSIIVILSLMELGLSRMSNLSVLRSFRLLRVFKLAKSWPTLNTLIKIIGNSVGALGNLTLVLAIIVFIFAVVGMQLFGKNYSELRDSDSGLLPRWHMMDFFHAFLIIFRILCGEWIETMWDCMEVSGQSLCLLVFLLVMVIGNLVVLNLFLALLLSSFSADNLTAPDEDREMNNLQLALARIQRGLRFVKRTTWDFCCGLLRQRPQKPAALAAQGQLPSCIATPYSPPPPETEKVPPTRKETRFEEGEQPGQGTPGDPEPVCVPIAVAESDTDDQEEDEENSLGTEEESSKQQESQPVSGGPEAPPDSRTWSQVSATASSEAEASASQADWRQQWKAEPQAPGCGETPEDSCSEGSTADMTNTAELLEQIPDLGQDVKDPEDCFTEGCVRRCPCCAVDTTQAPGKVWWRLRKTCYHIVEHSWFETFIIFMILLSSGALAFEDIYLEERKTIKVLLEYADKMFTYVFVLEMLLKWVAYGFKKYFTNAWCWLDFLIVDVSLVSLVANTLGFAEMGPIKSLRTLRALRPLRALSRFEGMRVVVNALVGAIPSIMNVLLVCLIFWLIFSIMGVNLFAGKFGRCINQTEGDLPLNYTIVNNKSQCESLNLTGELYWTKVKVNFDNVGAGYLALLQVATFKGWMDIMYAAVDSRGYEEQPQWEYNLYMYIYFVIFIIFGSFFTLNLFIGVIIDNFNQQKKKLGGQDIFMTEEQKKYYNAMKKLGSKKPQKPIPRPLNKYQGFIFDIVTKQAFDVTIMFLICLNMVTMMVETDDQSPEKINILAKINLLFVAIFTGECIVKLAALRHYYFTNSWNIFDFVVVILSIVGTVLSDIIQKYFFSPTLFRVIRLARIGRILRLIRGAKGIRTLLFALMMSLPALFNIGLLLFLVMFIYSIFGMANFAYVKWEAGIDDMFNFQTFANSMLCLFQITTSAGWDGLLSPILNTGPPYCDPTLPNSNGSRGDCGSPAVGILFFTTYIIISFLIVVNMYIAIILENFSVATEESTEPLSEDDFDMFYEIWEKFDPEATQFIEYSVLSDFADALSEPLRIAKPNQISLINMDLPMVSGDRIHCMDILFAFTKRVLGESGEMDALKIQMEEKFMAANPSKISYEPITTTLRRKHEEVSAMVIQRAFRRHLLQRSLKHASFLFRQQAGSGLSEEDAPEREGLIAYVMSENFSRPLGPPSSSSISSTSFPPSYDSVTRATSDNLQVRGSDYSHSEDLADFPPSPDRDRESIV
As for `O=C(C1CC(F)(F)C1)N1CCOc2ccc(-c3ccc(OC(F)(F)F)cc3)cc2C1` [III-11, (3,3-difluorocyclobutyl)(7-(4-(trifluoromethoxy)phenyl)-2,3-dihydrobenzo[f][1,4]oxazepin-4(5H)-yl)methanone], the inhibition at 1 µM was found to be 20%.
The value for `O=C(c1cnccn1)N1CCOc2ccc(-c3ccc(OC(F)(F)F)cc3)cc2C1` [III-23, pyrazin-2-yl(7-(4-(trifluoromethoxy)phenyl)-2,3-dihydrobenzo[f][1,4]oxazepin-4(5H)-yl)methanone] was 26%.
`O=C(c1cccnn1)N1CCOc2ccc(-c3ccc(OC(F)(F)F)cc3)cc2C1` [III-24, pyridazin-3-yl(7-(4-(trifluoromethoxy)phenyl)-2,3-dihydrobenzo[f][1,4]oxazepin-4(5H)-yl)methanone]: the inhibition at 1 µM was found to be 17%.
The value for `O=C(Cc1ncccn1)N1CCOc2ccc(-c3ccc(C(F)(F)F)cc3)cc2C1` [III-30, 2-(pyrimidin-2-yl)-1-(7-(4-(trifluoromethyl)phenyl)-2,3-dihydrobenzo[f][1,4]oxazepin-4(5H)-yl)ethanone] was 16%.
The value for `Cn1cncc1C(=O)N1CCOc2ccc(-c3ccc(C(F)(F)F)cc3)cc2C1` [III-32, (1-methyl-1H-imidazol-5-yl)(7-(4-(trifluoromethyl)phenyl)-2,3-dihydrobenzo[f][1,4]oxazepin-4(5H)-yl)methanone] was 22%; that for `O=C(c1ncc[nH]1)N1CCOc2ccc(-c3ccc(C(F)(F)F)cc3)cc2C1` [III-33, (1H-imidazol-2-yl)(7-(4-(trifluoromethyl)phenyl)-2,3-dihydrobenzo[f][1,4]oxazepin-4(5H)-yl)methanone] was 37%; that for `Cn1ccnc1C(=O)N1CCOc2ccc(-c3ccc(C(F)(F)F)cc3)cc2C1` [III-37, (1-methyl-1H-imidazol-2-yl)(7-(4-(trifluoromethyl)phenyl)-2,3-dihydrobenzo[f][1,4]oxazepin-4(5H)-yl)methanone] was 41%.
Take `C[C@@H]1CN(C(=O)c2ncccn2)Cc2cc(-c3ccc(OC(F)(F)F)cc3)ccc2O1` [III-38, (R)-(2-methyl-7-(4-(trifluoromethoxy)phenyl)-2,3-dihydrobenzo[f][1,4]oxazepin-4(5H)-yl)(pyrimidin-2-yl)methanone]: the inhibition at 1 µM is 28%.
The value for `CC(C)(C)OC(=O)N1CCn2cc(C(=O)N3CCOc4ccc(-c5ccc(C(F)(F)F)cc5)cc4C3)nc2C1` [III-40, tert-butyl 2-(7-(4-(trifluoromethyl)phenyl)-2,3,4,5-tetrahydrobenzo[f][1,4]oxazepine-4-carbonyl)-5,6-dihydroimidazo[1,2-a]pyrazine-7(8H)-carboxylate] was 22%; that for `O=C(c1nc[nH]n1)N1CCOc2ccc(-c3ccc(C(F)(F)F)cc3)cc2C1` [III-50, (1H-1,2,4-triazol-3-yl)(7-(4-(trifluoromethyl)phenyl)-2,3-dihydrobenzo[f][1,4]oxazepin-4(5H)-yl)methanone] was 24%.
The value for `Cc1cc(C(=O)N2CCOc3ccc(-c4ccc(OC(F)(F)F)cc4)cc3C2)nn1C` [III-58, (1,5-dimethyl-1H-pyrazol-3-yl)(7-(4-(trifluoromethoxy)phenyl)-2,3-dihydrobenzo[f][1,4]oxazepin-4(5H)-yl)methanone] was 26%; that for `O=C1c2ccc(-c3cccc(C(F)(F)F)c3)cc2OCCN1Cc1ncccn1` [IV-4, 4-(pyrimidin-2-ylmethyl)-8-(3-(trifluoromethyl)phenyl)-3,4-dihydrobenzo[f][1,4]oxazepin-5(2H)-one] was 14%.
For `O=S1(=O)c2cc(-c3ccc(C(F)(F)F)cc3)ccc2OCCN1Cc1ncccn1` [IX-2, 2-((pyrimidin-2-yl)methyl)-8-(4-(trifluoromethyl)phenyl)-3,4-dihydro-2H-benzo[b][1,4,5]oxathiazepin-sulfone], the inhibition at 1 µM came to 22%.
On to `CC(C)(C)Oc1cc(-c2ccc3c(c2)C(=O)N(Cc2ccccn2)CCO3)ccn1` [VI-4, 7-(2-tert-butoxypyridin-4-yl)-4-(pyridin-2-ylmethyl)-3,4-dihydrobenzo[f][1,4]oxazepin-5(2H)-one], for which the inhibition at 1 µM is 36%.
The value for `O=C1c2cc(-c3cnc(N4CCCCC4)nc3)ccc2OCCN1Cc1ncccn1` [VI-11, 7-(2-(piperidin-1-yl)pyrimidin-5-yl)-4-(pyrimidin-2-ylmethyl)-3,4-dihydrobenzo[f][1,4]oxazepin-5(2H)-one] was 19%.
For the molecule `O=C1c2cc(-c3ccc(C(F)(F)F)cn3)ccc2OCCN1Cc1ccccn1` [VI-26, 4-(pyridin-2-ylmethyl)-7-(5-(trifluoromethyl)pyridin-2-yl)-3,4-dihydrobenzo[f][1,4]oxazepin-5(2H)-one], the inhibition at 1 µM was found to be 28%.
For the molecule `CC(C)c1nc(-c2ccc3c(c2)C(=O)N(Cc2ccccn2)CCO3)cs1` [VI-30, 7-(2-isopropylthiazol-4-yl)-4-(pyridin-2-ylmethyl)-3,4-dihydrobenzo[f][1,4]oxazepin-5(2H)-one], the inhibition at 1 µM came out at 40%.
The value for `O=C1c2cc(-c3ccc(C4CC4)s3)ccc2OCCN1Cc1ncccn1` [VI-36, 7-(5-cyclopropylthiophen-2-yl)-4-(pyrimidin-2-ylmethyl)-3,4-dihydrobenzo[f][1,4]oxazepin-5(2H)-one] was 47%; that for `O=C1c2cc(-c3ccc(C(F)(F)F)s3)ccc2OCCN1Cc1ncccn1` [VI-37, 4-(pyrimidin-2-ylmethyl)-7-(5-(trifluoromethyl)thiophen-2-yl)-3,4-dihydrobenzo[f][1,4]oxazepin-5(2H)-one] was 48%; that for `O=C1c2cc(C#Cc3ccccc3)ccc2OCCN1Cc1ncccn1` [VIII-5, 7-(phenylethynyl)-4-(pyrimidin-2-ylmethyl)-3,4-dihydrobenzo[f][1,4]oxazepin-5(2H)-one] was 32%.
Turning to `O=C1c2cc(CCc3ccc(C(F)(F)F)cc3)ccc2OCCN1Cc1ccccn1` [VIII-7, 4-(pyridin-2-ylmethyl)-7-(4-(trifluoromethyl)phenethyl)-3,4-dihydrobenzo[f][1,4]oxazepin-5(2H)-one], the inhibition at 1 µM was 59%.
The value for `O=C1c2cc(CCc3ccc(C(F)(F)F)cc3)ccc2OCCN1Cc1ncccn1` [VIII-8, 4-(pyrimidin-2-ylmethyl)-7-(4-(trifluoromethyl)phenethyl)-3,4-dihydrobenzo[f][1,4]oxazepin-5(2H)-one] was 47%; that for `O=C1c2cc(CCc3ccc(C(F)(F)F)cc3)ccc2OCCN1Cc1ncccc1F` [VIII-9, 4-((3-fluoropyridin-2-yl)methyl)-7-(4-(trifluoromethyl)phenethyl)-3,4-dihydrobenzo[f][1,4]oxazepin-5(2H)-one] was 50%; that for `O=C1c2cc(/C=C/c3ccc(C(F)(F)F)cc3)ccc2OCCN1Cc1ccccc1` [VIII-10, (E)-4-benzyl-7-(4-(trifluoromethyl)styryl)-3,4-dihydrobenzo[f][1,4]oxazepin-5(2H)-one] was 25%.
In the case of `O=C1c2cc(CCc3ccc(C(F)(F)F)cc3)ccc2OCCN1Cc1ccccc1` [VIII-11, 4-benzyl-7-(4-(trifluoromethyl)phenethyl)-3,4-dihydrobenzo[f][1,4]oxazepin-5(2H)-one], the inhibition at 1 µM was 42%.
The value for `O=C1c2cc(-c3ccc(OC(F)(F)F)cc3)ncc2OCCN1Cc1ncccn1` [XII-5, 4-(pyrimidin-2-ylmethyl)-7-(4-(trifluoromethoxy)phenyl)-3,4-dihydropyrido[4,3-f][1,4]oxazepin-5(2H)-one] was 25%.
The value for `O=C1c2cc(-c3ccc(OC(F)(F)F)cc3)ncc2OCCN1CC1CC1` [XII-9, 4-(cyclopropylmethyl)-7-(4-(trifluoromethoxy)phenyl)-3,4-dihydropyrido[4,3-f][1,4]oxazepin-5(2H)-one] was 22%; that for `COc1ccnc(CN2CCOc3cnc(-c4ccc(OC(F)(F)F)cc4)cc3C2=O)n1` [XII-14, 4-((4-methoxypyrimidin-2-yl)methyl)-7-(4-(trifluoromethoxy)phenyl)-3,4-dihydropyrido[4,3-f][1,4]oxazepin-5(2H)-one] was 26%; that for `O=C1c2cc(Nc3ccc(OC(F)(F)F)cc3)ccc2OCCN1Cc1ncccn1` [XIII-1, 4-(pyrimidin-2-ylmethyl)-7-(4-(trifluoromethoxy)phenylamino)-3,4-dihydrobenzo[f][1,4]oxazepin-5(2H)-one] was 16%.
The value for `O=C1c2cc(Oc3ccc(OC(F)(F)F)cc3)ccc2OCCN1Cc1ncccn1` [XIII-2, 4-(pyrimidin-2-ylmethyl)-7-(4-(trifluoromethoxy)phenoxy)-3,4-dihydrobenzo[f][1,4]oxazepin-5(2H)-one] was 19%; that for `O=C1c2cc(Nc3ccc(C(F)(F)F)cc3)ccc2OCCN1Cc1ncccn1` [XIII-3, 4-(pyrimidin-2-ylmethyl)-7-(4-(trifluoromethyl)phenylamino)-3,4-dihydrobenzo[f][1,4]oxazepin-5(2H)-one] was 17%.
As to `CN(c1ccc(OC(F)(F)F)cc1)c1ccc2c(c1)C(=O)N(Cc1ncccn1)CCO2` [XIII-10, 7-(methyl(4-(trifluoromethoxy)phenyl)amino)-4-(pyrimidin-2-ylmethyl)-3,4-dihydrobenzo[f][1,4]oxazepin-5(2H)-one], the inhibition at 1 µM was 22%.

The values above are taken from patent US9676760B2, “Fused heterocyclic compounds as ion channel modulators” (Gilead Sciences, Inc., priority 2011, dated 2017).
